Results published in ChEMBL document CHEMBL2424540, “Synthesis and pharmacological evaluation of novel 1-(piperidin-4-yl)-1H-benzo[d]imidazol-2(3H)-one derivatives as potential antimicrobial agents” (2013).

How the values were obtained:
Type in all cases: functional
Aspergillus clavatus = assay: Antifungal activity against Aspergillus clavatus MTCC 1323 at 50 mg/ml after 24 hrs by disk agar diffusion technique; details: MTCC 1323, 24 h, read-out: DIZ
Candida albicans = assay: Antifungal activity against Candida albicans MTCC 227 at 50 mg/ml after 24 hrs by disk agar diffusion technique; details: MTCC 227, 24 h, read-out: DIZ
Pseudomonas aeruginosa = assay: Antibacterial activity against Pseudomonas aeruginosa MTCC 424 at 50 mg/ml after 24 hrs by disk agar diffusion technique; details: MTCC 424, 24 h, read-out: DIZ
Escherichia coli = assay: Antibacterial activity against Escherichia coli MTCC 443 at 50 mg/ml after 24 hrs by disk agar diffusion technique; details: MTCC 443, 24 h, read-out: DIZ
Streptococcus pyogenes = assay: Antibacterial activity against Streptococcus pyogenes MTCC 442 at 50 mg/ml after 24 hrs by disk agar diffusion technique; details: MTCC 442, 24 h, read-out: DIZ
Staphylococcus aureus = assay: Antibacterial activity against Staphylococcus aureus MTCC 96 at 50 mg/ml after 24 hrs by disk agar diffusion technique; details: MTCC 96, 24 h, read-out: DIZ

SMILES | zone of inhibition at 50000 µg/mL (Aspergillus clavatus) [mm] | zone of inhibition at 50000 µg/mL (Candida albicans) [mm] | zone of inhibition at 50000 µg/mL (Pseudomonas aeruginosa) [mm] | zone of inhibition at 50000 µg/mL (Escherichia coli) [mm] | zone of inhibition at 50000 µg/mL (Streptococcus pyogenes) [mm] | zone of inhibition at 50000 µg/mL (Staphylococcus aureus) [mm]
CCOC(=O)Cn1c(=O)n(C2CCN(C3CCc4cc(OC)c(OC)cc43)CC2)c2ccc(Cl)cc21 (centres undefined) | 14 | 15 | 11 | 12 | 16 | 14
CCOC(=O)n1c(=O)n(C2CCN(C3CCc4cc(OC)c(OC)cc43)CC2)c2ccc(Cl)cc21 (centres undefined) | 21 | 7 | 13 | 15 | 14 | 11
CCN(CC)C(=O)n1c(=O)n(C2CCN(C3CCc4cc(OC)c(OC)cc43)CC2)c2ccc(Cl)cc21 (centres undefined) | 11 | 10 | 8 | 13 | 11 | 20
COc1cc2c(cc1OC)C(N1CCC(n3c(=O)n(CCCl)c4cc(Cl)ccc43)CC1)CC2 (centres undefined) | 13 | 17 | 11 | 10 | 16 | 18
COc1cc2c(cc1OC)C(N1CCC(n3c(=O)n(CCCN(C)C)c4cc(Cl)ccc43)CC1)CC2 (centres undefined) | 10 | 18 | 16 | 14 | 18 | 13
COCn1c(=O)n(C2CCN(C3CCc4cc(OC)c(OC)cc43)CC2)c2ccc(Cl)cc21 (centres undefined) | 15 | 24 | 15 | 14 | 13 | 10
COc1cc2c(cc1OC)C(N1CCC(n3c(=O)n(Cc4ccccc4)c4cc(Cl)ccc43)CC1)CC2 (centres undefined) | 17 | 25 | 13 | 11 | 10 | 11
COc1cc2c(cc1OC)C(N1CCC(n3c(=O)n(Cc4ccc(Cl)cc4)c4cc(Cl)ccc43)CC1)CC2 (centres undefined) | 19 | 16 | 9 | 19 | 9 | 17
COc1cc2c(cc1OC)C(N1CCC(n3c(=O)n(Cc4ccc([N+](=O)[O-])cc4)c4cc(Cl)ccc43)CC1)CC2 (centres undefined) | 22 | 17 | 10 | 17 | 11 | 13
CC1(C)S[C@@H]2[C@H](NC(=O)[C@H](N)c3ccccc3)C(=O)N2[C@H]1C(=O)O [AMPICILLIN] | – | – | 20 | 20 | 19 | 18
O=C(N[C@H](CO)[C@H](O)c1ccc([N+](=O)[O-])cc1)C(Cl)Cl [CHLORAMPHENICOL] | – | – | 21 | 23 | 20 | 21
OC(Cn1cncn1)(Cn1cncn1)c1ccc(F)cc1F [FLUCONAZOLE] | 24 | 24 | – | – | – | –
